{
  "source": "paper PMC2855122",
  "about": "(Journal of immunology (Baltimore, Md. : 1950), 2009)",
  "system": "HeLa-Kb-A3-47 cells",
  "test": "Cell-surface HLA-A3 level after transfection with ER targeted precursors",
  "type": "cell-based",
  "conditions": "GAP-A3 staining (Figure 7B)",
  "data": [
    {"sequence": "RVCEKMALY [R-Y]", "values": [
      {"measurement": "Surface expression of HLA-A3 after ER targeted peptide", "result": "increased the surface expression of HLA-A3"}
    ]}
  ]
}
